pIC50: −log10 of the molar value.

One assay concerns RS4;11 cells. The experiment in a line: Cell viability assay (CellTiter-Glo) in RS4;11 cells. Type of assay: cell-based. The note with it: Homo sapiens, 72 h; RS4;11 ALL cells treated for three days; read-out: cell viability inhibition IC50. Summed up: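 Three-day compound treatment of RS4;11 ALL cells (5000/well, 3-fold dilution series of 8 or 12 points), with IC50 from a nonlinear least-squares fit to CellTiter-Glo viability data.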
Background: ATP-based viability assays read luminescence as a measure of living cells.
As to `Cc1cnc(Nc2ccc(N3CCN(CC(=O)NCCOCCOCCOCCOCCOCCNc4cccc5c4C(=O)N(C4CCC(=O)NC4=O)C5=O)CC3)cc2)nc1Nc1cccc(S(=O)(=O)NC(C)(C)C)c1` (stereo not drawn) [JA-224, 2-(4-(4-((4-((3-(N-(tert-butyl)sulfamoyl)phenyl)amino)-5-methylpyrimidin-2-yl)amino)phenyl)piperazin-1-yl)-N-(17-((2-(2,6-dioxopiperidin-3-yl)-1,3-dioxoisoindolin-4-yl)amino)-3,6,9,12,15-pentaoxaheptadecyl)acetamide], the pIC50 is over 7.00.
The same measure, in the same setting: with `Cc1cnc(Nc2ccc(N3CCN(C(=O)CNc4ccc5c(c4)C(=O)N(C4CCC(=O)NC4=O)C5=O)CC3)cc2)nc1Nc1cccc(S(=O)(=O)NC(C)(C)C)c1` (stereo not drawn) [JA-225, N-(tert-butyl)-3-((2-((4-(4-((2-(2,6-dioxopiperidin-3-yl)-1,3-dioxoisoindolin-5-yl)glycyl)piperazin-1-yl)phenyl)amino)-5-methylpyrimidin-4-yl)amino)benzenesulfonamide] the figure was over 7.00; with `Cc1cnc(Nc2ccc(N3CCN(C(=O)CCCCCCCNc4ccc5c(c4)C(=O)N(C4CCC(=O)NC4=O)C5=O)CC3)cc2)nc1Nc1cccc(S(=O)(=O)NC(C)(C)C)c1` (stereo not drawn) [JA-231, N-(tert-butyl)-3-((2-((4-(4-(8-((2-(2,6-dioxopiperidin-3-yl)-1,3-dioxoisoindolin-5-yl)amino)octanoyl)piperazin-1-yl)phenyl)amino)-5-methylpyrimidin-4-yl)amino)benzenesulfonamide], over 7.00.

The assay is the same for the next values; noted with them: Homo sapiens, 72 h; RS4;11 cells; cell viability, 3 days, CellTiter-Glo; read-out: IC50.
As to `Cc1cnc(Nc2ccc(N3CCN(CC(=O)NCCOCCOCCOCCOCCOCCC(=O)N[C@H](C(=O)N4C[C@H](O)C[C@H]4C(=O)NCc4ccc(-c5scnc5C)cc4)C(C)(C)C)CC3)cc2)nc1Nc1cccc(S(=O)(=O)NC(C)(C)C)c1` [JA-223, (2S,4R)-1-((S)-23-(tert-butyl)-1-(4-(4-((4-((3-(N-(tert-butyl)sulfamoyl)phenyl)amino)-5-methylpyrimidin-2-yl)amino)phenyl)piperazin-1-yl)-2,21-dioxo-6,9,12,15,18-pentaoxa-3,22-diazatetracosan-24-oyl)-4-hydroxy-N-(4-(4-methylthiazol-5-yl)benzyl)pyrrolidine-2-carboxamide], the pIC50 was 5.03.
The same measure, in the same setting: with `Cc1cnc(Nc2ccc(N3CCN(CC(=O)NCCOCCOCCOCCOCCOCCNc4cccc5c4C(=O)N(C4CCC(=O)NC4=O)C5=O)CC3)cc2)nc1Nc1cccc(S(=O)(=O)NC(C)(C)C)c1` (stereo not drawn) [JA-224, 2-(4-(4-((4-((3-(N-(tert-butyl)sulfamoyl)phenyl)amino)-5-methylpyrimidin-2-yl)amino)phenyl)piperazin-1-yl)-N-(17-((2-(2,6-dioxopiperidin-3-yl)-1,3-dioxoisoindolin-4-yl)amino)-3,6,9,12,15-pentaoxaheptadecyl)acetamide] the figure was 6.98; with `Cc1cnc(Nc2ccc(N3CCN(C(=O)CNc4ccc5c(c4)C(=O)N(C4CCC(=O)NC4=O)C5=O)CC3)cc2)nc1Nc1cccc(S(=O)(=O)NC(C)(C)C)c1` (stereo not drawn) [JA-225, N-(tert-butyl)-3-((2-((4-(4-((2-(2,6-dioxopiperidin-3-yl)-1,3-dioxoisoindolin-5-yl)glycyl)piperazin-1-yl)phenyl)amino)-5-methylpyrimidin-4-yl)amino)benzenesulfonamide], 7.18.
Still for that read-out and setting: for `Cc1cnc(Nc2ccc(N3CCN(C(=O)CCNc4ccc5c(c4)C(=O)N(C4CCC(=O)NC4=O)C5=O)CC3)cc2)nc1Nc1cccc(S(=O)(=O)NC(C)(C)C)c1` (stereo not drawn) [JA-226, N-(tert-butyl)-3-((2-((4-(4-(3-((2-(2,6-dioxopiperidin-3-yl)-1,3-dioxoisoindolin-5-yl)amino)propanoyl)piperazin-1-yl)phenyl)amino)-5-methylpyrimidin-4-yl)amino)benzenesulfonamide] the value was 6.44; for `Cc1cnc(Nc2ccc(N3CCN(C(=O)CCCNc4ccc5c(c4)C(=O)N(C4CCC(=O)NC4=O)C5=O)CC3)cc2)nc1Nc1cccc(S(=O)(=O)NC(C)(C)C)c1` (stereo not drawn) [JA-227, N-(tert-butyl)-3-((2-((4-(4-(4-((2-(2,6-dioxopiperidin-3-yl)-1,3-dioxoisoindolin-5-yl)amino)butanoyl)piperazin-1-yl)phenyl)amino)-5-methylpyrimidin-4-yl)amino)benzenesulfonamide], 5.51.
The same measure, in the same setting: for `Cc1cnc(Nc2ccc(N3CCN(C(=O)CCCCNc4ccc5c(c4)C(=O)N(C4CCC(=O)NC4=O)C5=O)CC3)cc2)nc1Nc1cccc(S(=O)(=O)NC(C)(C)C)c1` (stereo not drawn) [JA-228, N-(tert-butyl)-3-((2-((4-(4-(5-((2-(2,6-dioxopiperidin-3-yl)-1,3-dioxoisoindolin-5-yl)amino)pentanoyl)piperazin-1-yl)phenyl)amino)-5-methylpyrimidin-4-yl)amino)benzenesulfonamide] the value was 5.70; for `Cc1cnc(Nc2ccc(N3CCN(C(=O)CCCCCNc4ccc5c(c4)C(=O)N(C4CCC(=O)NC4=O)C5=O)CC3)cc2)nc1Nc1cccc(S(=O)(=O)NC(C)(C)C)c1` (stereo not drawn) [JA-229, N-(tert-butyl)-3-((2-((4-(4-(6-((2-(2,6-dioxopiperidin-3-yl)-1,3-dioxoisoindolin-5-yl)amino)hexanoyl)piperazin-1-yl)phenyl)amino)-5-methylpyrimidin-4-yl)amino)benzenesulfonamide], under 5.00; for `Cc1cnc(Nc2ccc(N3CCN(C(=O)CCCCCCNc4ccc5c(c4)C(=O)N(C4CCC(=O)NC4=O)C5=O)CC3)cc2)nc1Nc1cccc(S(=O)(=O)NC(C)(C)C)c1` (stereo not drawn) [JA-230, N-(tert-butyl)-3-((2-((4-(4-(7-((2-(2,6-dioxopiperidin-3-yl)-1,3-dioxoisoindolin-5-yl)amino)heptanoyl)piperazin-1-yl)phenyl)amino)-5-methylpyrimidin-4-yl)amino)benzenesulfonamide], under 5.00.
Turning to `Cc1cnc(Nc2ccc(N3CCN(C(=O)CCCCCCCNc4ccc5c(c4)C(=O)N(C4CCC(=O)NC4=O)C5=O)CC3)cc2)nc1Nc1cccc(S(=O)(=O)NC(C)(C)C)c1` (stereo not drawn) [JA-231, N-(tert-butyl)-3-((2-((4-(4-(8-((2-(2,6-dioxopiperidin-3-yl)-1,3-dioxoisoindolin-5-yl)amino)octanoyl)piperazin-1-yl)phenyl)amino)-5-methylpyrimidin-4-yl)amino)benzenesulfonamide], the pIC50 is 7.10.
On to `Cc1cnc(Nc2ccc(N3CCN(C(=O)CCOCCNc4ccc5c(c4)C(=O)N(C4CCC(=O)NC4=O)C5=O)CC3)cc2)nc1Nc1cccc(S(=O)(=O)NC(C)(C)C)c1` (stereo not drawn) [JA-232, N-(tert-butyl)-3-((2-((4-(4-(3-(2-((2-(2,6-dioxopiperidin-3-yl)-1,3-dioxoisoindolin-5-yl)amino)ethoxy)propanoyl)piperazin-1-yl)phenyl)amino)-5-methylpyrimidin-4-yl)amino)benzenesulfonamide], for which the pIC50 is under 5.00.
On the same count and under the same terms, with `Cc1cnc(Nc2ccc(N3CCN(C(=O)CCOCCOCCNc4ccc5c(c4)C(=O)N(C4CCC(=O)NC4=O)C5=O)CC3)cc2)nc1Nc1cccc(S(=O)(=O)NC(C)(C)C)c1` (stereo not drawn) [JA-233, N-(tert-butyl)-3-((2-((4-(4-(3-(2-(2-((2-(2,6-dioxopiperidin-3-yl)-1,3-dioxoisoindolin-5-yl)amino)ethoxy)ethoxy)propanoyl)piperazin-1-yl)phenyl)amino)-5-methylpyrimidin-4-yl)amino)benzenesulfonamide] the figure was 6.54; with `Cc1cnc(Nc2ccc(N3CCN(C(=O)CCOCCOCCOCCNc4ccc5c(c4)C(=O)N(C4CCC(=O)NC4=O)C5=O)CC3)cc2)nc1Nc1cccc(S(=O)(=O)NC(C)(C)C)c1` (stereo not drawn) [JA-234, N-(tert-butyl)-3-((2-((4-(4-(3-(2-(2-(2-((2-(2,6-dioxopiperidin-3-yl)-1,3-dioxoisoindolin-5-yl)amino)ethoxy)ethoxy)ethoxy)propanoyl)piperazin-1-yl)phenyl)amino)-5-methylpyrimidin-4-yl)amino)benzenesulfonamide], 5.80.
Still for that read-out and setting: with `Cc1cnc(Nc2ccc(N3CCN(C(=O)CCOCCOCCOCCOCCNc4ccc5c(c4)C(=O)N(C4CCC(=O)NC4=O)C5=O)CC3)cc2)nc1Nc1cccc(S(=O)(=O)NC(C)(C)C)c1` (stereo not drawn) [JA-235, N-(tert-butyl)-3-((2-((4-(4-(1-((2-(2,6-dioxopiperidin-3-yl)-1,3-dioxoisoindolin-5-yl)amino)-3,6,9,12-tetraoxapentadecan-15-oyl)piperazin-1-yl)phenyl)amino)-5-methylpyrimidin-4-yl)amino)benzenesulfonamide] the figure was 6.07; with `Cc1cnc(Nc2ccc(N3CCN(C(=O)CCOCCOCCOCCOCCOCCNc4ccc5c(c4)C(=O)N(C4CCC(=O)NC4=O)C5=O)CC3)cc2)nc1Nc1cccc(S(=O)(=O)NC(C)(C)C)c1` (stereo not drawn) [JA-236, N-(tert-butyl)-3-((2-((4-(4-(1-((2-(2,6-dioxopiperidin-3-yl)-1,3-dioxoisoindolin-5-yl)amino)-3,6,9,12,15-pentaoxaoctadecan-18-oyl)piperazin-1-yl)phenyl)amino)-5-methylpyrimidin-4-yl)amino)benzenesulfonamide], 5.58.
Still for that read-out and setting: for `Cc1cnc(Nc2ccc(N3CCN(CC(=O)NCCOCCNc4ccc5c(c4)C(=O)N(C4CCC(=O)NC4=O)C5=O)CC3)cc2)nc1Nc1cccc(S(=O)(=O)NC(C)(C)C)c1` (stereo not drawn) [JA-237, 2-(4-(4-((4-((3-(N-(tert-butyl)sulfamoyl)phenyl)amino)-5-methylpyrimidin-2-yl)amino)phenyl)piperazin-1-yl)-N-(2-(2-((2-(2,6-dioxopiperidin-3-yl)-1,3-dioxoisoindolin-5-yl)amino)ethoxy)ethyl)acetamide] the value was under 5.00; for `Cc1cnc(Nc2ccc(N3CCN(CC(=O)NCCOCCOCCNc4ccc5c(c4)C(=O)N(C4CCC(=O)NC4=O)C5=O)CC3)cc2)nc1Nc1cccc(S(=O)(=O)NC(C)(C)C)c1` (stereo not drawn) [JA-238, 2-(4-(4-((4-((3-(N-(tert-butyl)sulfamoyl)phenyl)amino)-5-methylpyrimidin-2-yl)amino)phenyl)piperazin-1-yl)-N-(2-(2-(2-((2-(2,6-dioxopiperidin-3-yl)-1,3-dioxoisoindolin-5-yl)amino)ethoxy)ethoxy)ethyl)acetamide], 6.14; for `Cc1cnc(Nc2ccc(N3CCN(CC(=O)NCCOCCOCCOCCNc4ccc5c(c4)C(=O)N(C4CCC(=O)NC4=O)C5=O)CC3)cc2)nc1Nc1cccc(S(=O)(=O)NC(C)(C)C)c1` (stereo not drawn) [JA-239, 2-(4-(4-((4-((3-(N-(tert-butyl)sulfamoyl)phenyl)amino)-5-methylpyrimidin-2-yl)amino)phenyl)piperazin-1-yl)-N-(2-(2-(2-(2-((2-(2,6-dioxopiperidin-3-yl)-1,3-dioxoisoindolin-5-yl)amino)ethoxy)ethoxy)ethoxy)ethyl)acetamide], 6.13.
In the case of `Cc1cnc(Nc2ccc(N3CCN(CC(=O)NCCOCCOCCOCCOCCNc4ccc5c(c4)C(=O)N(C4CCC(=O)NC4=O)C5=O)CC3)cc2)nc1Nc1cccc(S(=O)(=O)NC(C)(C)C)c1` (stereo not drawn) [JA-240, 2-(4-(4-((4-((3-(N-(tert-butyl)sulfamoyl)phenyl)amino)-5-methylpyrimidin-2-yl)amino)phenyl)piperazin-1-yl)-N-(14-((2-(2,6-dioxopiperidin-3-yl)-1,3-dioxoisoindolin-5-yl)amino)-3,6,9,12-tetraoxatetradecyl)acetamide], the pIC50 is 6.19.

What is called pIC50 is the negative decadic logarithm of the IC50, by convention in mol/L.

These data come from patent US20230093099A1, “COMPOUNDS AND METHODS OF TREATING CANCERS” (CULLGEN (SHANGHAI), INC., priority 2019, published 2023).
